3 molecules from PMC3729039 (Molecular cancer therapeutics, 2013) can be followed below.

One data set has as its system LNCaP cells. Briefly: Viability assay, LNCaP. The data set is classed as cell-based, human. To be noted: treated for 4 days.
Data set [1] has as its target T1, full-length human glucocorticoid receptor (GR) (Homo sapiens, UniProt P04150).
T1 sequence (P04150 1-777): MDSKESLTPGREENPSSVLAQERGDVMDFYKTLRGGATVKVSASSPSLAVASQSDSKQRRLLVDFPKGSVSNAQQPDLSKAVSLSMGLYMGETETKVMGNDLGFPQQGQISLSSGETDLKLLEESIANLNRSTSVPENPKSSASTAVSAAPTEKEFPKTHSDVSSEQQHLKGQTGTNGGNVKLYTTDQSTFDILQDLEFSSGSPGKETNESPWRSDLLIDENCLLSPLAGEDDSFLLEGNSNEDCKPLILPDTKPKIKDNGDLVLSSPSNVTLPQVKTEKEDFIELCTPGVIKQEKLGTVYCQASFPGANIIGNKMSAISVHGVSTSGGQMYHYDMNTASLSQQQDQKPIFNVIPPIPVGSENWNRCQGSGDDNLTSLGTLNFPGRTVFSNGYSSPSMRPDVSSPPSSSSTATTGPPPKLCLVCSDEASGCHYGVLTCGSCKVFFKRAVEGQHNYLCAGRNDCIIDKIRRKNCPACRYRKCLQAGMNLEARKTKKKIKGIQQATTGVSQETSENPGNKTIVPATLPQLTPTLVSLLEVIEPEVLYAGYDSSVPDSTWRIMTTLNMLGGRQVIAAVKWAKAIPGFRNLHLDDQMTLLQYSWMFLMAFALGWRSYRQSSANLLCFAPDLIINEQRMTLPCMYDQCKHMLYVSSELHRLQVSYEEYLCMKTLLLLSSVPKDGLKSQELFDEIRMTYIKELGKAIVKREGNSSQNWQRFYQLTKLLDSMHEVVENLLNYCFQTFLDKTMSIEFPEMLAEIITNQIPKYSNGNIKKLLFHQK
The data set can be described thus: GR transcriptional activity, GRE reporter in LNCaP cells. To be noted: 10 µM, 10 nM dexamethasone, 48 hours.

The target in another data set is T2, recombinant human PR LBD (Homo sapiens, UniProt P06401).
T2 sequence (P06401 679-913 limits assumed): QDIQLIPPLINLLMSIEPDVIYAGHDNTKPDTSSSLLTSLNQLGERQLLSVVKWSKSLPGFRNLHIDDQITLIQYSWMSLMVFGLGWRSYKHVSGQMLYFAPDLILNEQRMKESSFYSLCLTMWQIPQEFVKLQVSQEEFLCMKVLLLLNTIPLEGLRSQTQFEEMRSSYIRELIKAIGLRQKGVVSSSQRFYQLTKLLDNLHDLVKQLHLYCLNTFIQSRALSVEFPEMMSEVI
Briefly: In vitro ligand competitor assay. Format: binding.

For data set [2], the system named is seminal vesicles (androgen-dependent tissue). Briefly: In vivo effects on androgen-dependent tissue in intact male mice. Details: species or system NOD-SCID mice. To be noted: mature male mice, 10 mg/kg oral gavage, 13 daily doses.
In the next data set the test system is VCaP cells. Briefly: Viability assay, VCaP. Format: cell-based. Particulars: VCaP (wild-type AR), treated for 5 days.
For the next data set, the system named is PC3 cells. Briefly: Viability assay, PC3. The data set is classed as cell-based, human. Particulars: PC3, treated for 3 days.
Another data set relates to LNCaP95 cells. Briefly: LNCaP95 cell growth/viability.
Data set [3] concerns the target T3, full-length human progesterone receptor-beta (PRβ) (Homo sapiens, UniProt P06401).
T3 sequence (P06401 1-933): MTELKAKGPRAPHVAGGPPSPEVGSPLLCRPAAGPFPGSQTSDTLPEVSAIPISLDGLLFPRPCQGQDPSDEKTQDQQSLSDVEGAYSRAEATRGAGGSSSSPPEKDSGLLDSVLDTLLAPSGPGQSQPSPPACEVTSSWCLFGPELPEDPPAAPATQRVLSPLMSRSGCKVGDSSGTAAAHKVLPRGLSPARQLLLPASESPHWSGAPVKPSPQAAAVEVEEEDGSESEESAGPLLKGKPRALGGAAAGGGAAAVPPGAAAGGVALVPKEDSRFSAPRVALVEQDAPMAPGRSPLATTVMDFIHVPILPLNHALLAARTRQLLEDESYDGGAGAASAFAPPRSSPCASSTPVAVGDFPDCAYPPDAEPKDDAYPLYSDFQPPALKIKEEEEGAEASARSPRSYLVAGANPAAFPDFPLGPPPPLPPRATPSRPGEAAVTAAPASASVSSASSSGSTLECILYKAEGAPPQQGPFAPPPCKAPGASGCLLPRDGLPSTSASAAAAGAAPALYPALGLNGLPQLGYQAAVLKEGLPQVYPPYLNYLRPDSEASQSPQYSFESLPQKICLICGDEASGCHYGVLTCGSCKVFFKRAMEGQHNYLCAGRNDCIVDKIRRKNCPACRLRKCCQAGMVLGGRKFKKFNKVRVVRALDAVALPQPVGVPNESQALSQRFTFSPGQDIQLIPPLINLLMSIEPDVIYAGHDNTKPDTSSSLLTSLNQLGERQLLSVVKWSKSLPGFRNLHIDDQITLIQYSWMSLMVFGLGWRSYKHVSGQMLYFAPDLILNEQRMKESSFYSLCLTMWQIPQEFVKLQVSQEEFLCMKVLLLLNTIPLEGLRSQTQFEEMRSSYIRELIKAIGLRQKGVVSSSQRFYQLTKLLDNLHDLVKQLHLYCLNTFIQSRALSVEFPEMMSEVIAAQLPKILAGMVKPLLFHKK
Briefly: PR transcriptional activity, PRE luciferase reporter in LNCaP cells. To be noted: 10 µM, 10 nM 4-pregnene-3,20 dione, 48 hours. The data set is classed as cell-based.

In data set [4] the test system is PSA, FKBP5 and TMPRSS2 transcripts. Briefly: qRT-PCR of androgen-regulated genes in VCaP cells. The data set is classed as cell-based. To be noted: 10 µM, 1 nM R1881, 16 hours.
Data set [5] has as its system PC3 human prostate cancer cells. Briefly: Proliferation of PC3 cells. The data set is classed as cell-based. To be noted: PC3, 0.1 nM R1881.
Data set [6] addresses recombinant human full-length ERα (Homo sapiens, UniProt P03372). The data set can be described thus: In vitro ligand competitor assay. The data set is classed as binding. Particulars: fluorescence polarization competitor assay.
Data set [7] concerns LNCaP human prostate cancer cells. Briefly: Androgen-dependent proliferation of LNCaP cells. Format: cell-based. Particulars: 0.1 nM R1881.

The structures appear in SMILES notation.

recombinant human full-length ERα, sequence (P03372 whole entry): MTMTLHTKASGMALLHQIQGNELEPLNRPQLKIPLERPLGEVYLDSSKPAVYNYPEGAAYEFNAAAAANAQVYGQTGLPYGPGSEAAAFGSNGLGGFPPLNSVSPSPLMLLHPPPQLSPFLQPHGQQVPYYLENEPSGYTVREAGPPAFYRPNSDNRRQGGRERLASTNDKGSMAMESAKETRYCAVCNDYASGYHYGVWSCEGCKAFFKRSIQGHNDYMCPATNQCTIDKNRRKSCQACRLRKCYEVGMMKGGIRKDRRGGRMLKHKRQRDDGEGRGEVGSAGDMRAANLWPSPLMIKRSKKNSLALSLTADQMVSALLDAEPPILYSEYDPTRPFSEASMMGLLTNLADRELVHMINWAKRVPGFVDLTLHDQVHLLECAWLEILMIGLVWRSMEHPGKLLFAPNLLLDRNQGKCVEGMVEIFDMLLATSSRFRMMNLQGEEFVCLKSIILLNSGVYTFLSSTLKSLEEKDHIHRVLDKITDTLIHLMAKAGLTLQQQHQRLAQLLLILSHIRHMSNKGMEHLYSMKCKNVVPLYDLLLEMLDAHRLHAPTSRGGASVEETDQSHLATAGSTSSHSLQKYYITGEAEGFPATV

In the case of `CC(O)(CS(=O)(=O)c1ccc(F)cc1)C(=O)Nc1ccc(C#N)c(C(F)(F)F)c1` (stereo not drawn) [BIC, bicalutamide], the “cytotoxicity (viability assay)” value with LNCaP cells, in the data set on VCaP cells and in the data set with PC3 cells was “no indication of cytotoxicity” throughout. For the same molecule, the “effect on transcriptional activity of GR induced by dexamethasone” value in data set [1] is on record as “had no effect”. The EC50 at recombinant human PR LBD turned out to be 5.1 µM. Moreover, in [2], the testes weight entry was “no effect on the weight of testis”. In the data set with LNCaP95 cells, the “effect on cell growth/viability” value is “not altered”. Besides, the “effect on PR transcriptional activity induced by Preg” value in data set [3] is “inhibited”. In addition, the “effect on androgen-induced levels of PSA transcript” value in data set [4] is on record as “neither BIC or any of the diterpenoids significantly reduced these levels”. In addition, the “effect on androgen-induced levels of transcript for FKBP5 and TMPRSS2” value in [4] is “significantly blocked”.
As for `C[C@]1(O)CC[C@H]2[C@@H]3CCC4=CC(=O)CCC4=C3C=C[C@@]21C` [R1881], the “effect of androgen on proliferation” value in data set [5] is “did not alter their proliferation”; in data set [7], “led to increased proliferation”. The “competition with fluoromone for ERα” value in [6] is “none of the AR ligands (R1881, BIC and the diterpenoids) were efficient in competing”. Moreover, the “effect on cell growth/viability” value with LNCaP95 cells was “not altered”.
Regarding `CC#C[C@]1(O)CC[C@H]2[C@@H]3CCC4=CC(=O)CCC4=C3[C@@H](c3ccc(N(C)C)cc3)C[C@@]21C` [RU486], the “effect on PR transcriptional activity induced by Preg” value in data set [3] is listed as “inhibited”.
